Assay results: patent publication US20250108036A1, “COMPOSITIONS FOR REMOVING SENESCENT CELLS AND USES THEREOF” (LIFECEUTIX CO., LTD., priority 2021, published 2025)

What was measured:
[1] = tested on: p16; assay: p16 mRNA qRT-PCR in organ tissues of naturally aged mice (Example 7-2); format: in vivo, C57BL6J mice; conditions: LX-112 70 mg/kg oral daily 21 days, aged untreated = 100%
Description: After 22-month-old female C57BL6J mice (purchased from KRIBB Laboratory Animal Resource Center) were adapted to the experimental environment for one week, the aged mice were randomized into an experimental group and a control group. 8-week-old mice that were not aged were used as controls. LX-112 was mixed with 0.5% CMC-Na solution (purchased from Sigma) and administered orally at a concentration of 70 mg/kg daily for 21 days. The control group was administered only the solution in the same volume. After drug administration was completed, the method described in each Example below was performed.
The mouse was sacrificed, RNA was extracted from the organ tissue of each region, and qRT-PCR was performed using the synthesized cDNA. Specifically, in order to maintain the quality of RNA during the RNA extraction process, the tissue from each collected area was immediately cut into 30 mg to 50 mg pieces, placed in RNA stabilization solution (purchased from Thermo Fisher Scientific), and absorbed into the tissue for 1 day. Afterwards, it was stored at −80° C. until use. The collected tissue was placed together with the lysate in a tube containing beads for tissue homogenization (purchased from MP Bio) and homogenized using tissue homogenization equipment (purchased from MP Bio). Total RNA was extracted from the homogenized tissues. The extraction method used an RNA extraction kit (PureLink RNA Mini Kit, purchased from Thermo Fisher Scientific) for soft tissues including liver, kidney, lung, and brain, or TRIzol Reagent (purchased from Thermo Fisher Scientific) for hard tissues including muscle, skin, fat, etc. The concentration of extracted total RNA was quantified using Nanodrop (purchased from Micro Digital) or SpectraMax iD3 Multi-Mode Microplate Reader (purchased from Molecular Device). Genomic DNA was removed from the extracted total RNA using a cDNA synthesis kit (purchased from Thermo Fisher Scientific), and cDNA was prepared. Using the synthesized cDNA, qRT-PCR was performed for each gene using the housekeeping gene β-actin as a standard, using Taqman Fast Abvanced Master Mix (purchased from Applied Biosystems), SFCgreen I qPCR Master Mix (purchased from SFC Probe), or AmfiSure qGreen qPCR Master Mix (purchased from GenDEPOT), and analyzed using the CFX Connect Real-Time PCR Detection System (purchased from Bio Rad). […] Table 22 calculates the amount of p16 mRNA after senescence was induced as 100% and compared it with the amount of p16 mRNA after treatment with LX-112. The primers used were synthesized through bionics, except that TaqMan primers (purchased from Thermo Fisher Scientific) were used for p16 and IL6.

[2] = tested on: SA-β-gal; assay: SA-β-gal staining of tissues of doxorubicin-aged mice (Example 8-3); format: in vivo, C57BL6J mice; conditions: stained area; doxorubicin-aged mice, LX-112 70 mg/kg oral daily 21 days
Description: After adapting 8-week-old male C57BL6J mice (purchased from KRIBB Laboratory Animal Resource Center) to the experimental environment for 1 week, doxorubicin, an anticancer drug, was administered intraperitoneally at a concentration of 10 mg/kg, and mice that were induced to age for more than 10 days were assigned to an experimental group and a control group. LX-112 was mixed with 0.5% CMC-Na solution (purchased from Sigma) and administered orally at a concentration of 70 mg/kg daily for 21 days. The control group was administered only the solution in the same volume. After drug administration was completed, the method described in each Example below was performed.
Mice were sacrificed in the same method in described in Example 7-3, and tissue sections were prepared from the organ tissues of each region. SA-β-gal, an aging marker was stained. […] FIG. 3 is a photographic result of staining of adipose tissue.

[3] = tested on: SAOS-2; assay: senescent SAOS-2 tumor size in mice (Example 2-3); format: in vivo, BALB/c nude mice; conditions: doxorubicin 10 mg/kg i.p.; after 10 days LX-112 100 mg/kg oral daily 21 days or repeated doxorubicin
Description: After 7-week-old male BALB/c nude mice (purchased from KRIBB Laboratory Animal Resource Center) were adapted to the experimental environment for one week, the mice were randomized into an experimental group and a control group. SAOS-2 (10^6 cells), a human osteosarcoma cancer cell line cultured in the same manner as Example 2-1, was mixed with PBS (purchased from Welgene) and then anesthetized using 2% isoflurane (purchased from Sigma). It was administered subcutaneously to mice. When the size of the tumor reached about […], doxorubicin was mixed at a concentration of 10 mg/kg in a 1:1 solution of distilled water and PBS (pH 7.2) and administered intraperitoneally to induce tumor aging. After 10 days, LX-112 mixed with 0.5% CMC-Na solution (purchased from Sigma) at a concentration of 100 mg/kg was orally administered daily for 21 days, and the size of the tumor was measured. The control group was repeatedly administered a solution mixed with doxorubicin, and then the size of the tumor was measured.

[4] = open field test in obesity-aged mice (Example 9-4); format: in vivo, C57BL6J mice; conditions: LX-112 70 mg/kg oral daily 21 days, DIO without LX = 100%
Description: 15-week-old male C57BL6J mice (purchased from Jackson Laboratories), whose obesity was induced by a high-fat diet, were adapted to the experimental environment for one week, and then the mice were randomized into an experimental group and a control group. LX-112 was mixed with 0.5% CMC-Na solution (purchased from Sigma) and administered orally at a concentration of 70 mg/kg daily for 21 days. The control group was administered only the solution in the same volume. After drug administration was completed, the method described in each Example below was performed. Mice were sacrificed and the weight of adipose tissue in each area was measured.
Accordingly, the open field test was performed to analyze lethargy due to anxiety and depression caused by obesity in mice using the same method as Example 7-7. […] Table 58 calculates the amounts of activity after aging induced by obesity as 100% and compares it with the amount of activity evaluation after treatment with LX-112.

[5] = tested on: senescent cancer (A549) cells; assay: survival of senescent A549 cancer cells treated with medium supernatant of compound-killed cancer cells (Example 14, Table 70); format: cell-based, human
Description: In the same way as Examples 12 and 13, senescence of cancer (A549) cells was induced by treatment with doxorubicin or the control group (DMSO), and the cells were cultured. […] In the same manner as in Example 13, the medium supernatants comprising secreted fluid from normally proliferating and senescent cancer cells was obtained. Normally proliferating and senescent-induced cancer cells were treated with the medium supernatants.
Furthermore, other test compounds were used in the same manner in Example 12 above at high concentrations of 30 μM, 90 μM, and 270 μM, respectively, and the cultured medium supernatant comprising secreted fluid from aged cancer cells that were killed were obtained. As a result of measuring the degree of death of aged cancer cells, it was confirmed that aged cancer cells can be effectively removed, as shown in Example 12 and Table 65.

[6] = tested on: A549; assay: CellTiter-Glo cell viability of senescent A549 cancer cells (Example 12, Table 67); format: cell-based, human; conditions: Homo sapiens, A549, doxorubicin-induced senescent A549 cancer cells, 1.1 μM test compound, CellTiter-Glo; read-out: Survival (%)

O=c1c2ccccc2[se]n1CCn1[se]c2ccccc2c1=O [LX-112, 1,2-[bis(1,2-benzisoselenazolone-3(2H)-ketone)]ethane]
p16 mRNA (%) Brain [1]: 89 (±5) %
p16 mRNA (%) Kidney [1]: 52 (±7.9) %
p16 mRNA (%) Liver [1]: 62 (±3.5) %
p16 mRNA (%) Lung [1]: 69 (±1) %
p16 mRNA (%) Muscle [1]: 76 (±3.1) %
p16 mRNA (%) Skin [1]: 74 (±6.7) %
p16 mRNA (%) eWAT [1]: 79 (±2) %
SA-β-gal (%) Kidney [2]: 69.2 (±10.2) %
SA-β-gal (%) Liver [2]: 67.4 (±9.9) %
SA-β-gal (%) Lung [2]: 64.2 (±9.2) %
SA-β-gal (%) eWAT [2]: 51.4 (±13.4) %
Tumor Diameter (mm) [3]: 6.2 (±4.8) mm
Open Field Test Time in Center (%) [4]: 137.5 (±15) %

COC(=O)c1ccc([C@H]2c3[nH]c4ccccc4c3C[C@H](C(=O)OC)N2C(=O)CCl)cc1 [LX-405]
Survival (%) ([5]; supernatant from No Cells): 98.2 (±2.8) %
Survival (%) ([5]; supernatant from death-induced proliferating cells (LX-405 30 μM)): 78.8 (±7.7) %
Survival (%) ([5]; supernatant from death-induced senescent cells (LX-405 30 μM)): 72.5 (±5.7) %
viability at 1.1 µM [6]: 23.8%
